Data: the supplement of paper PMC13380429

How the values were obtained:
Conditions in all cases: 72 h
[1] = test system: Caco-2; experiment: cell viability relative to DMSO; higher = less toxic
[2] = test system: Calu-3; experiment: as above
[3] = test system: HepG2; experiment: as above
[4] = test system: U2OS; experiment: as above
[5] = test system: Vero E6; experiment: as above
[6] = test system: Caco-2; experiment: relative viability EC50 (midpoint between 100% and the lowest measured viability); higher = less toxic
[7] = test system: Calu-3; experiment: as above
[8] = test system: HepG2; experiment: as above
[9] = test system: U2OS; experiment: as above
[10] = test system: Vero E6; experiment: as above
[11] = test system: Caco-2; experiment: drug sensitivity score (DSS) for viability; higher = more toxic; extreme values may be limits of the assay
[12] = test system: Calu-3; experiment: as above
[13] = test system: HepG2; experiment: as above
[14] = test system: U2OS; experiment: as above
[15] = test system: Vero E6; experiment: as above

| Compound | cell viability ([1]; 1 nM) [%] | cell viability ([1]; 10 nM) [%] | cell viability ([1]; 100 nM) [%] | cell viability ([1]; 1000 nM) [%] | cell viability ([1]; 10000 nM) [%] | cell viability ([2]; 1 nM) [%] | cell viability ([2]; 10 nM) [%] | cell viability ([2]; 100 nM) [%] | cell viability ([2]; 1000 nM) [%] | cell viability ([2]; 10000 nM) [%] | cell viability ([3]; 1 nM) [%] | cell viability ([3]; 10 nM) [%] | cell viability ([3]; 100 nM) [%] | cell viability ([3]; 1000 nM) [%] | cell viability ([3]; 10000 nM) [%] | cell viability ([4]; 1 nM) [%] | cell viability ([4]; 10 nM) [%] | cell viability ([4]; 100 nM) [%] | cell viability ([4]; 1000 nM) [%] | cell viability ([4]; 10000 nM) [%] | cell viability ([5]; 1 nM) [%] | cell viability ([5]; 10 nM) [%] | cell viability ([5]; 100 nM) [%] | cell viability ([5]; 1000 nM) [%] | cell viability ([5]; 10000 nM) [%] | relative viability EC50 [6] [µM] | relative viability EC50 [7] [µM] | relative viability EC50 [8] [µM] | relative viability EC50 [9] [µM] | relative viability EC50 [10] [µM] | drug sensitivity score [11] | drug sensitivity score [12] | drug sensitivity score [13] | drug sensitivity score [14] | drug sensitivity score [15] |
| --- | --- | --- | --- | --- | --- | --- | --- | --- | --- | --- | --- | --- | --- | --- | --- | --- | --- | --- | --- | --- | --- | --- | --- | --- | --- | --- | --- | --- | --- | --- | --- | --- | --- | --- | --- |
| N[C@@H](Cc1c[nH]c2ccccc12)C(=O)O [tryptophan] | 105 | 96.6 | 85.7 | 110 | 97.5 | 106 | 97.1 | 107 | 107 | 103 | 88.3 | 95.1 | 103 | 88.9 | 100 | 97.2 | 101 | 101 | 99.1 | 98.1 | 99.7 | 108 | 94.4 | 91.3 | 99.8 | > 10 | > 10 | > 10 | > 10 | > 10 | 0 | 0 | 0 | 0 | 0 |
| N#Cc1ccc(N(Cc2ccc(Br)cc2)n2cnnc2)cc1 [YM-511] | 108 | 92 | 94.1 | 92 | 88.3 | 95.9 | 97.8 | 92.4 | 97.4 | 99.3 | 104 | 102 | 99.8 | 96.6 | 98 | 104 | 96.4 | 103 | 98.4 | 101 | 103 | 98 | 100 | 106 | 96.6 | > 10 | > 10 | > 10 | > 10 | > 10 | 0.2 | 0 | 0 | 0 | 0 |
| CCOc1ccccc1OC(c1ccccc1)C1CNCCO1 (stereo not given) [reboxetine] | 104 | 97.9 | 97.1 | 104 | 104 | 107 | 96.5 | 99.4 | 104 | 94.3 | 105 | 121 | 95.5 | 106 | 102 | 101 | 101 | 98.8 | 101 | 104 | 102 | 102 | 102 | 98.4 | 95.6 | > 10 | > 10 | > 10 | > 10 | > 10 | 0 | 0 | 0 | 0 | 0 |
